Measurements published in patent publication US9669061B2, “Medicinal agent exhibiting antiprotozoal activity to Trichomonas vaginalis in an in-vitro model system” (Viktor Ivanovich Roschin, priority 2008, dated 2017).
Converted amounts (≈) assume the structure as drawn.

Test system: T. vaginalis isolates
Assay: Sensitivity of T. vaginalis isolates to metronidazole (serial dilution MIC by immobilisation; lysis method for amastigote forms)
Assay type: cell-based, Trichomonas vaginalis
Details: for MIC: Trichomonas vaginalis
Method: Then, the sensitivity of T. vaginalis to metronidazole was examined in vitro, using as an indicator the immobilisation of the trichomonad by the test-substance. For the sensitivity test, 90% or more of the protozoa were required to be motile. The sensitivity of T. vaginalis isolates to metronidazole was determined using serials dilution and the minimum inhibitory concentration (MIC) method. 4.0 ml of the medium was placed in test tubes and mixed with 0.5 ml of solution various concentrations of metronidazole—from 0.25 to 1000 μg/ml, or 1 mg/ml).
Then, 0.5 ml of pathogenic culture containing a known concentration of T. vaginalis (cells/ml) was added to the test tubes. Media without the test substance was used as a control. Vaseline was added to the surface (0.5 mm layer) of the tubes to create anaerobic conditions necessary for the growth of T.vaginalis. The test tubes were then placed in a thermostat at 37° C. Results were recorded 48 and 96 hours after inoculation.
The sensitivity of trichomonad to metronidazole was determined based on the minimum inhibitory concentration (MIC), which causes immobilisation of all cells of T.vaginalis. The strains were considered as resistant to metronidazole, when immobilisation occurred at concentration of metronidazole exceeding 15 μg/ml.
The MIC method cannot be used when atypical, amastigote (lacking flagella) T. vaginalis are present. Instead, a common in vitro lysis method for determining the sensitivity to antiprotozoal medications was used. Lysis of all trichomonas is an indicator of the efficacy of the test substance. Nutrient media containing trichomonas without metronidazole was used as a control. Metronidazole, at concentrations of 10, 15, 25, and 50 μg/ml was used in this experiment. Strains that lysed at a concentration of 25 μg/ml were considered resistant to metronidazole.

- MIC (isolate 1 (actively mobile)): 15 µg/mL (≈ 87.6 µM)
- MIC (isolate 2 (actively mobile)): 15 µg/mL (≈ 87.6 µM)
- MIC (isolate 3 (actively mobile)): 25 µg/mL (≈ 146 µM)
- MIC (isolate 4 (amastigote)): 50 µg/mL (≈ 292 µM)
- MIC (isolate 5 (amastigote)): 25 µg/mL (≈ 146 µM)
- MIC (isolate 6 (amastigote)): 50 µg/mL (≈ 292 µM)
- MIC (isolate 7 (amastigote)): 25 µg/mL (≈ 146 µM)
- MIC (isolate 8 (amastigote)): 25 µg/mL (≈ 146 µM)
- MIC (isolate 9 (amastigote)): > 50 µg/mL
- MIC (isolate 10 (amastigote)): 50 µg/mL (≈ 292 µM)
- MIC (strains 4, 6, 9 and 10): > 25 µg/mL
Structure (SMILES): Cc1ncc([N+](=O)[O-])n1CCO [Metronidazole, metronidazole]
- number of isolates (out of 10) on which metronidazole had an effect (metronidazole 15 μg/ml): 2
- resistance of isolates to metronidazole (the rest of the isolates (not affected at 15 μg/ml)): resistant
